Experimental data taken from patent publication US12552846B2, “Modified BCL9 mimetic peptides” (Sapience Therapeutics, Inc., priority 2019, dated 2026).
Square brackets hold non-standard residues; d marks the D form. Peptide text beside a SMILES is read from it. * marks the point of attachment. Octanoyl = CCCCCCCC(=O)*

tested on: HL60 promyelocytic leukemia cells; assay: Cytotoxicity assay in HL60 cells (Annexin V FITC / PI flow cytometry); format: cell-based; settings: 48 hours, 0-80 μM, % Viability (Annexin V low, PI low)
Procedure: We examined the cytotoxicity of peptides BCL-26 and BCL-27 using an assay in HL60 promyelocytic leukemia cells. HL60 PML suspension cells were set at a density of 3.5×10^3 cells/well in 150 μL of RPMI+1.5% fetal bovine serum (FBS) in a 96 well dish. BCL-26 or BCL-27, reconstituted at a concentration of 10 mg/mL in 20 mM His, pH 7.5, was added to each well at a volume of 50 μL to a final concentration range of 0-80 μM. Cells were incubated with peptide for 48 hours at 37° C. Cell viability was quantified by flow cytometry using abcam Annexin V FITC apoptosis detection kit. Briefly, cells were washed with PBS and resuspended in 1× assay buffer containing Annexin V FITC and propidium iodide (PI). Annexin V detects apoptotic cells, and PI stains dead cells. After staining, apoptotic cells show green fluorescence, dead cells show red and green fluorescence, and live cells show little or no fluorescence. Cells were selected for analysis based on forward scatter (FSC) vs. side scatter (SSC), and analyzed by BD Accuri C6 Plus flow cytometer to detect Annexin V-FITC binding (Ex=488 nm; Em=530 nm) using FITC signal detector and PI staining by the phycoerythrnn emission signal detector. Percentage of Annexin V^low and PI^low were quantified and presented as % Viability.
We examined the cytotoxicity of additional retro inverso and mixed chirality BCL9 mimetic peptides in HL60 cells using the assay described above.

`CC(C)C[C@@H](NC(=O)[C@@H](Cc1c[nH]c2ccccc12)NC(=O)[C@H](N)Cc1c[nH]c2ccccc12)C(=O)N[C@H](C)C(=O)N[C@H](CCCNC(=N)N)C(=O)N[C@H](CCC(N)=O)C(=O)N[C@H](CC(C)C)C(=O)N[C@H](CCC(=O)O)C(=O)N[C@H](CCCNC(=N)N)C(=O)N[C@H](CC(C)C)C(=O)N[C@H](C)C(=O)N[C@H](CCCNC(=N)N)C(=O)N[C@H](CC(C)C)C(=O)N[C@H](C)C(=O)N[C@H](CCCCN)C(=O)N[C@H](CC(C)C)C(=O)N[C@@H](C(=O)N1CCC[C@@H]1C(=O)N[C@@H](C(=O)O)C(C)C)[C@H](C)O` [BCL-86] (H-[dW][dW][dL][dA][dR][dQ][dL][dE][dR][dL][dA][dR][dL][dA][dK][dL][dT][dP][dV]-OH; N-terminus and C-terminus assumed) and `CC(C)C[C@@H](NC(=O)[C@@H](Cc1c[nH]c2ccccc12)NC(=O)[C@@H](N)Cc1c[nH]c2ccccc12)C(=O)N[C@H](C)C(=O)N[C@H](CCCNC(=N)N)C(=O)N[C@H](CCC(N)=O)C(=O)N[C@H](CC(C)C)C(=O)N[C@H](C)C(=O)N[C@H](CCCNC(=N)N)C(=O)N[C@H](CC(C)C)C(=O)N[C@H](CCCNC(=N)N)C(=O)N[C@H](CCC(N)=O)C(=O)N[C@H](CC(C)C)C(=O)N[C@H](C)C(=O)N[C@H](CCCCN)C(=O)N[C@H](CC(C)C)C(=O)N[C@@H](C(=O)N1CCC[C@@H]1C(=O)N[C@@H](C(=O)O)C(C)C)[C@H](C)O` [BCL-96] (H-W[dW][dL][dA][dR][dQ][dL][dA][dR][dL][dR][dQ][dL][dA][dK][dL][dT][dP][dV]-OH; N-terminus and C-terminus assumed) cannot be ordered by EC50: less than 2000 nM for the first, less than 2000 nM for the second.

First: CC(C)C[C@@H](NC(=O)[C@@H](Cc1c[nH]c2ccccc12)NC(=O)[C@H](N)Cc1c[nH]c2ccccc12)C(=O)N[C@H](C)C(=O)N[C@H](CCCNC(=N)N)C(=O)N[C@H](CCC(N)=O)C(=O)N[C@H](CC(C)C)C(=O)N[C@H](CCC(=O)O)C(=O)N[C@H](CCCNC(=N)N)C(=O)N[C@H](CC(C)C)C(=O)N[C@H](CCCNC(=N)N)C(=O)N[C@H](CCCNC(=N)N)C(=O)N[C@H](CC(C)C)C(=O)N[C@H](C)C(=O)N[C@H](CCCCN)C(=O)N[C@H](CC(C)C)C(=O)N[C@@H](C(=O)N1CCC[C@@H]1C(=O)N[C@@H](C(=O)O)C(C)C)[C@H](C)O [BCL-88] (H-[dW][dW][dL][dA][dR][dQ][dL][dE][dR][dL][dR][dR][dL][dA][dK][dL][dT][dP][dV]-OH; N-terminus and C-terminus assumed)
Second: CC(C)C[C@@H](NC(=O)[C@@H](Cc1c[nH]c2ccccc12)NC(=O)[C@H](N)Cc1c[nH]c2ccccc12)C(=O)N[C@H](C)C(=O)N[C@H](CCCNC(=N)N)C(=O)N[C@H](CCC(N)=O)C(=O)N[C@H](CC(C)C)C(=O)N[C@H](CCC(=O)O)C(=O)N[C@H](CCCNC(=N)N)C(=O)N[C@H](CC(C)C)C(=O)N[C@H](C)C(=O)N[C@H](CCCCN)C(=O)N[C@H](CC(C)C)C(=O)N[C@H](C)C(=O)N[C@H](CCCCN)C(=O)N[C@H](CC(C)C)C(=O)N[C@@H](C(=O)N1CCC[C@@H]1C(=O)N[C@@H](C(=O)O)C(C)C)[C@H](C)O [BCL-90] (H-[dW][dW][dL][dA][dR][dQ][dL][dE][dR][dL][dA][dK][dL][dA][dK][dL][dT][dP][dV]-OH; N-terminus and C-terminus assumed)
The EC50 of the first is lower: less than 2000 nM for the first, 2000 to 10000 nM for the second.

First: CC(C)C[C@@H](NC(=O)[C@@H](Cc1c[nH]c2ccccc12)NC(=O)[C@H](N)Cc1c[nH]c2ccccc12)C(=O)N[C@H](C)C(=O)N[C@H](CCCNC(=N)N)C(=O)N[C@H](CCC(N)=O)C(=O)N[C@H](CC(C)C)C(=O)N[C@H](C)C(=O)N[C@H](CCCNC(=N)N)C(=O)N[C@H](CC(C)C)C(=O)N[C@H](CCCCN)C(=O)N[C@H](CCC(N)=O)C(=O)N[C@H](CC(C)C)C(=O)N[C@H](C)C(=O)N[C@H](CCCCN)C(=O)N[C@H](CC(C)C)C(=O)N[C@@H](C(=O)N1CCC[C@@H]1C(=O)N[C@@H](C(=O)O)C(C)C)[C@H](C)O [BCL-89] (H-[dW][dW][dL][dA][dR][dQ][dL][dA][dR][dL][dK][dQ][dL][dA][dK][dL][dT][dP][dV]-OH; N-terminus and C-terminus assumed)
Second: CC(C)C[C@@H](NC(=O)[C@@H](Cc1c[nH]c2ccccc12)NC(=O)[C@@H](N)Cc1c[nH]c2ccccc12)C(=O)N[C@H](C)C(=O)N[C@H](CCCNC(=N)N)C(=O)N[C@H](CCC(N)=O)C(=O)N[C@H](CC(C)C)C(=O)N[C@H](C)C(=O)N[C@H](CCCNC(=N)N)C(=O)N[C@H](CC(C)C)C(=O)N[C@H](C)C(=O)N[C@H](CCC(N)=O)C(=O)N[C@H](CC(C)C)C(=O)N[C@H](C)C(=O)N[C@H](CCCCN)C(=O)N[C@H](CC(C)C)C(=O)N[C@@H](C(=O)N1CCC[C@@H]1C(=O)N[C@@H](C(=O)O)C(C)C)[C@H](C)O [BCL-95] (H-W[dW][dL][dA][dR][dQ][dL][dA][dR][dL][dA][dQ][dL][dA][dK][dL][dT][dP][dV]-OH; N-terminus and C-terminus assumed)
The EC50 of the first is higher: 2000 to 10000 nM for the first, less than 2000 nM for the second.

`CC(C)C[C@@H](NC(=O)[C@@H](CCCNC(=N)N)NC(=O)[C@@H](C)NC(=O)[C@@H](CC(C)C)NC(=O)[C@@H](CCC(N)=O)NC(=O)[C@@H](CCCNC(=N)N)NC(=O)[C@H](NC(=O)[C@@H](CC(C)C)NC(=O)[C@@H](Cc1c[nH]c2ccccc12)NC(=O)[C@H](N)Cc1c[nH]c2ccccc12)C(C)C)C(=O)N[C@H](C)C(=O)N[C@H](CCC(N)=O)C(=O)N[C@H](CC(C)C)C(=O)N[C@H](C)C(=O)N[C@H](CCCCN)C(=O)N[C@H](CC(C)C)C(=O)N[C@@H](C(=O)N1CCC[C@@H]1C(=O)N[C@@H](C(=O)O)C(C)C)[C@H](C)O` [BCL-91a] (H-[dW][dW][dL][dV][dR][dQ][dL][dA][dR][dL][dA][dQ][dL][dA][dK][dL][dT][dP][dV]-OH; N-terminus and C-terminus assumed) and `CCCCCCCC(=O)N[C@H](Cc1c[nH]c2ccccc12)C(=O)N[C@H](Cc1c[nH]c2ccccc12)C(=O)N[C@H](CC(C)C)C(=O)N[C@@H](C(=O)N[C@H](CCCNC(=N)N)C(=O)N[C@H](CCC(N)=O)C(=O)N[C@H](CC(C)C)C(=O)N[C@H](C)C(=O)N[C@H](CCCNC(=N)N)C(=O)N[C@H](CC(C)C)C(=O)N[C@H](C)C(=O)N[C@H](CCC(N)=O)C(=O)N[C@H](CC(C)C)C(=O)N[C@H](C)C(=O)N[C@H](CCCCN)C(=O)N[C@H](CC(C)C)C(=O)N[C@@H](C(=O)N1CCC[C@@H]1C(=O)N[C@@H](C(=O)O)C(C)C)[C@H](C)O)C(C)C` [BCL-91b] (Octanoyl-[dW][dW][dL][dV][dR][dQ][dL][dA][dR][dL][dA][dQ][dL][dA][dK][dL][dT][dP][dV]-OH; C-terminus assumed) cannot be ordered by EC50: less than 2000 nM for the first, less than 2000 nM for the second.

With `CC(C)C[C@@H](NC(=O)[C@@H](CCC(N)=O)NC(=O)[C@@H](C)NC(=O)[C@@H](CC(C)C)NC(=O)[C@@H](CCCNC(=N)N)NC(=O)[C@@H](C)NC(=O)[C@@H](CC(C)C)NC(=O)[C@@H](CCC(N)=O)NC(=O)[C@@H](CCCNC(=N)N)NC(=O)[C@@H](C)NC(=O)[C@@H](CC(C)C)NC(=O)[C@@H](Cc1c[nH]c2ccccc12)NC(=O)[C@@H](Cc1c[nH]c2ccccc12)NC(=O)CNC(=O)[C@@H](CCCNC(=N)N)NC(=O)CNC(=O)[C@@H](CC(=O)O)NC(=O)[C@@H](CO)NC(=O)[C@H]1CCCN1)C(=O)N[C@H](C)C(=O)O` [BCL-92] (H-[dP][dS][dD]G[dR]G[dW][dW][dL][dA][dR][dQ][dL][dA][dR][dL][dA][dQ][dL][dA]-OH; N-terminus and C-terminus assumed) the EC50 was 2000 to 10000 nM.
